{
  "source": "patent US20260183408A1",
  "about": "“POLYPEPTIDE AND USE THEREOF” (SHENZHEN CHENYANG BIOLOGICAL TECHNOLOGY CO., LTD, priority 2022, published 2026)",
  "key": {"[1]": {"molecular_target": "T1, D2R/5-HT2CR complex (Mus musculus, UniProt P34968)", "T1 construct": "from tissue", "T1 sequence (P34968 33-459)": "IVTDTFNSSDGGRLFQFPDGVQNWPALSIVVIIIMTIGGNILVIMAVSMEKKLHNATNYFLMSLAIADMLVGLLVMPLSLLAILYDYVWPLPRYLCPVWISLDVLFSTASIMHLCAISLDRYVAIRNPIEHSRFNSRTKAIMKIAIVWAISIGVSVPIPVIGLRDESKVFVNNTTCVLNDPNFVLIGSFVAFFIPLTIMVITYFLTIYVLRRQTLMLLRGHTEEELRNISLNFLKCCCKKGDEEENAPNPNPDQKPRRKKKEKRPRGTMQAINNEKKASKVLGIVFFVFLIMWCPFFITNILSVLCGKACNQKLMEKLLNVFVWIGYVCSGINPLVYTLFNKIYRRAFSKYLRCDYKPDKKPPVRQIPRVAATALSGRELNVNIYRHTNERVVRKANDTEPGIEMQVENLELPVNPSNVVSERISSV", "assay": "Co-immunoprecipitation of hippocampal tissue of polypeptide-treated SPS mice", "format": "in vivo", "settings": "intraperitoneal, 1.5 h (FIG. 7 left)", "protocol": "Co-immunoprecipitation was performed using protein samples (with 100-500 μg protein) from the hippocampal tissue of the Balb/c mice. Mouse monoclonal antibodies against both 5-HT2CR and D2R, D2R, or 5-HT2CR were used for precipitation with 25 μl of the slurry of protein A/G+agarose beads (SantaCruz Biotechnology, sc-2001).\nWestern blotting analysis after precipitation: Denatured (at 100° C. for 10 min) proteins were separated on an 8% SDS-PAGE gel, then transferred to a nitrocellulose membrane, which was then blocked with skim milk in TBST (Tris-buffered saline with 0.1% Tween 20). Next, incubation was carried out with the primary antibodies at 4° C. overnight. Finally, treatment with an HRP-conjugated secondary antibody were performed for 1 h, signals were detected using the ECL UltraSignal chemiluminescence kit (4A Biotech, cat. no. 4AW011-500), and the bands were analyzed for densities using the Image Lab software.\nThe SPS model was established with male Balb/c mice. […]\nThe fear conditioning, safety learning, and recall tests were carried out in two contexts (the fear conditioning and safety learning tests were carried out in context A; and the recall test was carried out in context B). […] After the experiment was completed, the freezing level was manually calculated based on the recorded video. […]"}, "[2]": {"tested_on": "SPS mice", "assay": "Fear conditioning, safety learning and recall tests (freezing level)", "format": "in vivo", "settings": "treated for 1.5 h, 3 nM intraperitoneally, 100 μl/10 g mouse (FIG. 7 right)", "protocol": "The SPS model was established with male Balb/c mice. The modified SPS protocol was used to comprise a series of stress exposure: 2 hours of restraint stress (inside a 50-mL plastic tube having several air holes), 3 min of rest, 12 min of forced swimming in a transparent glass tank (at about 24° C.), 15 min of rest (drying under a warming lamp), 20 min of predator (rat) odor exposure, followed by ether anesthesia (until the mice completely lost consciousness). Thereafter, the mice are transferred back to their cages with fresh bedding. The control mice were housed in groups and received no stress exposure. After the model establishment, all mice were raised undisturbed for one week.\nThe fear conditioning, safety learning, and recall tests were carried out in two contexts (the fear conditioning and safety learning tests were carried out in context A; and the recall test was carried out in context B). The shapes and smells provided in contexts A and B were different. Indoor floors were cleaned with 1% acetic acid or 75% ethanol prior to testing. […] After the experiment was completed, the freezing level was manually calculated based on the recorded video. The criterion for a freezing behavior is that if no movement other than normal breathing of a mouse was detected within 2 seconds, then the mouse was considered freezing. […]"}, "[3]": {"tested_on": "CRS mice", "assay": "Open field test (OFT, time spent in the central area)", "format": "in vivo, mouse", "settings": "single intraperitoneal 3 nmol/g, 1 hour later (FIG. 13)", "protocol": "The C57BL/6J mice were horizontally fixed for 6 h (from 10 to 16 o'clock) in a first acrylic restraint which is cylindrical and flat-bottomed (25×90 mm) every day for 2 weeks. The filter had several slots which could adapt to the size of each mouse to firmly restrain the mouse and inhibit body movements of the limb and trunk without causing pain. Immediately after being restrained, the mice were sent back to their cages. Unrestrained mice (control) stayed in their cages when no CRS procedure was performed. Neither the control mice nor the CRS mice could have access to food and water during the CRS exposure.\nIn order to evaluate the anti-anxiety-like effect of the polypeptide of the present invention, a CRS mouse model was established using the method in Example 6. The mice were treated with TAT or TAT-D2R-KL (single intraperitoneal administration at 3 nmol/g in both cases), and 1 hour later, an open field test (OFT) for testing the time spent in the central area and an elevated plus maze (EPM) test were performed. […]\nOFT (for testing the time spent in the central area): The bottom of the open field was divided into 25 squares of equal area, with the 9 squares in the middle defined as the central area. One hour after the polypeptide treatment, the mice were placed in the central area to be recorded for 5 min, and the time spent in the central area by the mice was recorded."}},
  "data": [
    {"substance": "TAT-D2R-KL: C-terminus of the KL (K226-L240) region of D2R fused to the transduction domain of HIV-1 Tat protein (SEQ ID NO: 5)", "values": [
      {"measurement": "interaction between 5-HT2CR and D2R", "setting": "[1]", "result": "decrease"},
      {"measurement": "freezing level", "setting": "[2]", "result": "reduced"},
      {"measurement": "time spent in the central area", "setting": "[3]", "result": "significantly increased"}
    ]}
  ]
}
